Laboratory results as given in US20230383292A1, “TARGETING XIST AND RNA METHYLATION FOR X REACTIVATION THERAPY” (The General Hospital Corporation, priority 2020, published 2023).

Tested on: human XIST transcript
Assay: XIST knock down by XIST ASOs (Table 1)
Assay type: cell-based
Set-up: ASO conc at max KD: unit not given here
Conditions: for % Max KD: XIST knock down, cells treated for 72 hrs with XIST ASO; for ASO conc at max KD: concentration of XIST ASO giving max KD, 72 hrs
Description: The methods include administering an inhibitor of an XIST RNA itself, e.g., an inhibitory nucleic acid targeting XIST RNA. Although in typical usage XIST refers to the human sequence and XIST to the mouse sequence, in the present application the terms are used interchangeably. The human XIST sequence is available in the ensemble database at ENSG00000229807; it is present on Chromosome X at 73,820,651-73,852,753 reverse strand (Human GRCh38.p2). The sequences of exons 1-6 are shown in SEQ ID NOs:73-79 (see FIG. 2); XIST exons correspond to 601-11972 (exon 1); 15851-15914 (exon 2); 19593-20116 (exon 3); 21957-21984 (exon 4); 22080-22288 (exon 5); and 23887-33304 (exon 6). […] The inhibitory nucleic acid targeting XIST RNA can be any inhibitory nucleic acid as described herein, and can include modifications described herein or known in the art. In some embodiments, the inhibitory nucleic acid is an antisense oligonucleotide (ASO) that targets a sequence in XIST RNA, e.g., a sequence within an XIST exon as shown in SEQ ID NO:1-45 or within the RNA sequence as set forth in NR_001564.2, preferably wherein the ASO comprises a sequence as shown in Table 1. In some embodiments, the inhibitory nucleic includes at least one locked nucleotide, e.g., is a locked nucleic acid (LNA). Table 1 provides a list of ASOs that have more than 80% XIST knock down when cells are treated for 72 hrs with the below XIST ASOs.

ASO 1A: XIST antisense oligonucleotide TAGTTAGCACTCCTGCTGCT, SEQ ID NO 7 (listed as DNA, chemistry not given here)
% Max KD: 98% | ASO conc at max KD: 20

ASO 1B: XIST antisense oligonucleotide GCCTGCCATATTGTCCCTGC, SEQ ID NO 14 (listed as DNA, chemistry not given here)
% Max KD: 96% | ASO conc at max KD: 20

ASO 1C: XIST antisense oligonucleotide TGAGGCACCAATACAGAGGA, SEQ ID NO 18 (listed as DNA, chemistry not given here)
% Max KD: 95% | ASO conc at max KD: 20

ASO 1D: XIST antisense oligonucleotide TCAGACTGTATGACTGACAT, SEQ ID NO 8 (listed as DNA, chemistry not given here)
% Max KD: 98% | ASO conc at max KD: 20

ASO 1E: XIST antisense oligonucleotide GAATTCCTCTTCTGCCACCT, SEQ ID NO 28 (listed as DNA, chemistry not given here)
% Max KD: 91% | ASO conc at max KD: 20

ASO 1F: XIST antisense oligonucleotide TTTAGCTCATGCAATGCACA, SEQ ID NO 9 (listed as DNA, chemistry not given here)
% Max KD: 98% | ASO conc at max KD: 20

ASO 1G: XIST antisense oligonucleotide CTGAGATCACAGACAAATGG, SEQ ID NO 19 (listed as DNA, chemistry not given here)
% Max KD: 95% | ASO conc at max KD: 20

ASO 1P: XIST antisense oligonucleotide TAGCTCATGCAATGCACATG, SEQ ID NO 2 (listed as DNA, chemistry not given here)
% Max KD: 99% | ASO conc at max KD: 100

ASO 1R: XIST antisense oligonucleotide CTGTGACTACAGAAGCAATG, SEQ ID NO 22 (listed as DNA, chemistry not given here)
% Max KD: 94% | ASO conc at max KD: 100

ASO 1S: XIST antisense oligonucleotide CAGAAACCCAAGTCTAATTG, SEQ ID NO 23 (listed as DNA, chemistry not given here)
% Max KD: 94% | ASO conc at max KD: 20

ASO 1T: XIST antisense oligonucleotide AGGATGAACCATGTGGTGAT, SEQ ID NO 24 (listed as DNA, chemistry not given here)
% Max KD: 93% | ASO conc at max KD: 20

ASO 1U: XIST antisense oligonucleotide CTTACAACTGTGCACCTTGA, SEQ ID NO 15 (listed as DNA, chemistry not given here)
% Max KD: 96% | ASO conc at max KD: 100

ASO 1V: XIST antisense oligonucleotide AGGACCTTATTCACATGGAA, SEQ ID NO 10 (listed as DNA, chemistry not given here)
% Max KD: 98% | ASO conc at max KD: 20

ASO 1W: XIST antisense oligonucleotide CTTAAGTAGTAGGTACTTCC, SEQ ID NO 3 (listed as DNA, chemistry not given here)
% Max KD: 99% | ASO conc at max KD: 20

ASO 1X: XIST antisense oligonucleotide ACTCAGCAGCAATGGCAAAG, SEQ ID NO 29 (listed as DNA, chemistry not given here)
% Max KD: 89% | ASO conc at max KD: 100

ASO 3P: XIST antisense oligonucleotide TAGATTAGCTGGAGCTTGGC, SEQ ID NO 4 (listed as DNA, chemistry not given here)
% Max KD: 99% | ASO conc at max KD: 100

ASO 4A: XIST antisense oligonucleotide GGTTGTTGCCCAGTGGTAGT, SEQ ID NO 35 (listed as DNA, chemistry not given here)
% Max KD: 84% | ASO conc at max KD: 20

ASO 4B: XIST antisense oligonucleotide CCAGGAAAGTATCTTGACAG, SEQ ID NO 32 (listed as DNA, chemistry not given here)
% Max KD: 88% | ASO conc at max KD: 100

ASO 4P: XIST antisense oligonucleotide GTTGTTGCCCAGTGGTAGTG, SEQ ID NO 33 (listed as DNA, chemistry not given here)
% Max KD: 88% | ASO conc at max KD: 100

ASO 5A: XIST antisense oligonucleotide CAAATTTCTTGGACCTGCTG, SEQ ID NO 16 (listed as DNA, chemistry not given here)
% Max KD: 96% | ASO conc at max KD: 20

ASO 5B: XIST antisense oligonucleotide TTTCTTGGACCTGCTGAAGA, SEQ ID NO 20 (listed as DNA, chemistry not given here)
% Max KD: 95% | ASO conc at max KD: 20

ASO 5P: XIST antisense oligonucleotide GTTCAAATTTCTTGGACCTG, SEQ ID NO 34 (listed as DNA, chemistry not given here)
% Max KD: 88% | ASO conc at max KD: 20

ASO 5Q: XIST antisense oligonucleotide CAGATAGGAACAATGAAGAG, SEQ ID NO 30 (listed as DNA, chemistry not given here)
% Max KD: 89% | ASO conc at max KD: 100

ASO 6A: XIST antisense oligonucleotide TATGGCCCACAGTCTAAAGT, SEQ ID NO 1 (listed as DNA, chemistry not given here)
% Max KD: 99.3% | ASO conc at max KD: 20

ASO 6B: XIST antisense oligonucleotide AGAAGTCTGGCACATCTGTG, SEQ ID NO 11 (listed as DNA, chemistry not given here)
% Max KD: 98% | ASO conc at max KD: 100

ASO 6C: XIST antisense oligonucleotide TTGGCCTTGTGTCACAAGTC, SEQ ID NO 12 (listed as DNA, chemistry not given here)
% Max KD: 97% | ASO conc at max KD: 20

ASO 6D: XIST antisense oligonucleotide TCAAGACTGGCCCAGGCATA, SEQ ID NO 17 (listed as DNA, chemistry not given here)
% Max KD: 96% | ASO conc at max KD: 20

ASO 6E: XIST antisense oligonucleotide AGTTCAGGCTGTCCCCTTGG, SEQ ID NO 26 (LNA gapmer with DNA gap, wing lengths and linkages not given here)
% Max KD: 92% | ASO conc at max KD: 20

ASO 6I: XIST antisense oligonucleotide GTTCTGCACCTATCAGGCAG, SEQ ID NO 25 (listed as DNA, chemistry not given here)
% Max KD: 93% | ASO conc at max KD: 20

ASO 6P: XIST antisense oligonucleotide CCAGAGTGGTAGAAGAGATA, SEQ ID NO 27 (listed as DNA, chemistry not given here)
% Max KD: 92% | ASO conc at max KD: 20

ASO 6Q: XIST antisense oligonucleotide TCAGAAGTCTGGCACATCTG, SEQ ID NO 5 (listed as DNA, chemistry not given here)
% Max KD: 99% | ASO conc at max KD: 100

ASO 6R: XIST antisense oligonucleotide GGCCTTGTGTCACAAGTCTC, SEQ ID NO 6 (listed as DNA, chemistry not given here)
% Max KD: 99% | ASO conc at max KD: 100

ASO 6S: XIST antisense oligonucleotide CTGAGGATTGTTTCTGAAAG, SEQ ID NO 21 (listed as DNA, chemistry not given here)
% Max KD: 95% | ASO conc at max KD: 100

ASO 6T: XIST antisense oligonucleotide CCCACAGAAAGTAATCACCA, SEQ ID NO 31 (listed as DNA, chemistry not given here)
% Max KD: 89% | ASO conc at max KD: 20

ASO 6U: XIST antisense oligonucleotide CTTTGTCCCAGGCACAGTCA, SEQ ID NO 13 (listed as DNA, chemistry not given here)
% Max KD: 97% | ASO conc at max KD: 20
